# Laboratory results as given in patent publication US5008419A, “Novel platinum complex” (SS Pharmaceutical Co., Ltd., priority 1988, dated 1991).
# Columns and labels:
# L1210 leukemia cells = assay: Antitumor activity against L1210 leukemia in CDF1 mice (increase life span, survived ratio); format: in vivo, CDF1 male mice; details: for ILS (increase life span) / Survived ratio: i.p., once a day for 5 days; for ILS50 (50% increase life span dose): mouse, in vivo, ip, 43200 min; for Survived ratio: 30 days observation
# Experimental: CDF1 male mice (age: 6 weeks) consisting of 6 per each group were used to the test. 1×10^5 L1210 leukemia cells were intraperitoneally inoculated into each mouse. Test compounds dissolved in a solution of 0.5% CMC-Na in physiological saline were intraperitoneally administered to mice once a day for 5 consecutive days from the next day of the inoculation. A 0.5% CMC-Na solution in physiological saline was administered to the control group. […] All of these compounds are known compounds and Comparative Compounds a-c were disclosed in U.S. Pat. No. 4,169,846.
# Observation was continued for consecutive 30 days after the administration. Increase life span (ILS) was determined according to the following equation: […]
# wherein T is the mean survival days of the treated groups, and C is the mean survival days of the control groups.
# (§1) Therapeutic index of compounds of this invention was determined according to the following equation. [formula]
# 50% lethal dose (LD50) = details: in vivo
# Experimental: as §1
# Water solubility = format: physicochemical
Compound,ILS (increase life span) (L1210 leukemia cells; 4.0 mg/kg),ILS (increase life span) (L1210 leukemia cells; 8.0 mg/kg),ILS (increase life span) (L1210 leukemia cells; 16.0 mg/kg),ILS (increase life span) (L1210 leukemia cells; 32.0 mg/kg),ILS50 (50% increase life span dose) (L1210 leukemia cells),LD50 (50% lethal dose) (50% lethal dose (LD50)),Survived ratio (L1210 leukemia cells; 8.0 mg/kg),Survived ratio (L1210 leukemia cells; 16.0 mg/kg),Survived ratio (L1210 leukemia cells; 32.0 mg/kg),ILS (increase life span) (L1210 leukemia cells; 64.0 mg/kg),Survived ratio (L1210 leukemia cells; 64.0 mg/kg),ILS (increase life span) (L1210 leukemia cells; 128.0 mg/kg),Survived ratio (L1210 leukemia cells; 128.0 mg/kg),ILS (increase life span) (L1210 leukemia cells; 0.5 mg/kg),ILS (increase life span) (L1210 leukemia cells; 1.0 mg/kg),ILS (increase life span) (L1210 leukemia cells; 2.0 mg/kg),Survived ratio (L1210 leukemia cells; 2.0 mg/kg),Survived ratio (L1210 leukemia cells; 4.0 mg/kg),Water solubility (Water solubility)
"CC1C(=O)[O][Pt]2([NH]C3CCCCC3[NH]2)[O]C1=O (racemic) [Comparative Compound b, (trans-dl-1,2-diaminocyclohexane)methylmalonatoplatinum (II)]",17%,27%,43%,79%,14.9 mg/kg,312.6 mg/kg,,,,,,,,,,,,,
"CCC1C(=O)[O][Pt]2([NH]C3CCCCC3[NH]2)[O]C1=O (racemic) [Comparative Compound c, (trans-dl-1,2-diaminocyclohexane)ethylmalonatoplatinum (II)]",27%,31%,52%,69%,14.2 mg/kg,244.9 mg/kg,,,,,,,,,,,,,
N.N.O=C([O-])C1(C(=O)[O-])CCC1.[Pt+2] [Carboplatin],,27%,29%,43%,31.2 mg/kg,200.0 mg/kg,0%,0%,0%,70%,0%,25%,0%,,,,,,
N.N.[Cl][Pt][Cl] [Cisplatin],88%,,,,1.3 mg/kg,,,,,,,,,19%,33%,75%,,,
"(trans-dl-1,2-diaminocyclohexane) diethylmalonatoplatinum (II) [Compound No. 2]",61%,above 135%,above 124%,above 168%,2.7 mg/kg,140.0 mg/kg,33%,17%,33%,,,,,,,43%,0%,0%,10000 µg/mL
"(trans-dl-1,2-diaminocyclohexane) dimethylmalonatoplatinum (II) [Compound No. 1]",49%,above 136%,112%,130%,3.4 mg/kg,140.0 mg/kg,17%,0%,0%,,,,,,,40%,0%,0%,8000 µg/mL
"(trans-dl-1,2-diaminocyclohexane)-malonatoplatinum (II) [Comparative Compound a]",35%,49%,82%,94%,7.1 mg/kg,244.9 mg/kg,0%,0%,17%,above 108%,17%,,,,,,,0%,500 µg/mL
